These results are taken from US20070053994A1, “Anti-inflammatory treatment” (priority 2003, published 2007).

The assay concerns severe psoriasis (person). Kind of assay: Case report: treatment of severe psoriasis of hands, arms and feet. The class given is in vivo, human. The settings on record: effects did not last following long term treatment.

Structures are written as SMILES.

`C[C@]12CCC(=O)C=C1CC[C@@H]1[C@@H]2C(=O)C[C@@]2(C)[C@H]1CC[C@]2(O)C(=O)CO` [cortisone]: the “effect of earlier treatment on psoriasis (patient history)” value is on record as “some effects”.
